Measurements: ChEMBL document CHEMBL1155971, “Discovery of a novel class of isoxazoline voltage gated sodium channel blockers” (Bioorg Med Chem Lett, 2009)

How the values were obtained:
[1] = target: T1, Sodium channel protein type 9 subunit alpha (Homo sapiens, UniProt Q15858); experiment: Inhibition of human Nav1.7 channel expressed in HEK cells at 1 uM by FRET assay; assay type: cell-based; conditions: HEK293
Target sequence in this assay (Q15858 whole entry, looked up): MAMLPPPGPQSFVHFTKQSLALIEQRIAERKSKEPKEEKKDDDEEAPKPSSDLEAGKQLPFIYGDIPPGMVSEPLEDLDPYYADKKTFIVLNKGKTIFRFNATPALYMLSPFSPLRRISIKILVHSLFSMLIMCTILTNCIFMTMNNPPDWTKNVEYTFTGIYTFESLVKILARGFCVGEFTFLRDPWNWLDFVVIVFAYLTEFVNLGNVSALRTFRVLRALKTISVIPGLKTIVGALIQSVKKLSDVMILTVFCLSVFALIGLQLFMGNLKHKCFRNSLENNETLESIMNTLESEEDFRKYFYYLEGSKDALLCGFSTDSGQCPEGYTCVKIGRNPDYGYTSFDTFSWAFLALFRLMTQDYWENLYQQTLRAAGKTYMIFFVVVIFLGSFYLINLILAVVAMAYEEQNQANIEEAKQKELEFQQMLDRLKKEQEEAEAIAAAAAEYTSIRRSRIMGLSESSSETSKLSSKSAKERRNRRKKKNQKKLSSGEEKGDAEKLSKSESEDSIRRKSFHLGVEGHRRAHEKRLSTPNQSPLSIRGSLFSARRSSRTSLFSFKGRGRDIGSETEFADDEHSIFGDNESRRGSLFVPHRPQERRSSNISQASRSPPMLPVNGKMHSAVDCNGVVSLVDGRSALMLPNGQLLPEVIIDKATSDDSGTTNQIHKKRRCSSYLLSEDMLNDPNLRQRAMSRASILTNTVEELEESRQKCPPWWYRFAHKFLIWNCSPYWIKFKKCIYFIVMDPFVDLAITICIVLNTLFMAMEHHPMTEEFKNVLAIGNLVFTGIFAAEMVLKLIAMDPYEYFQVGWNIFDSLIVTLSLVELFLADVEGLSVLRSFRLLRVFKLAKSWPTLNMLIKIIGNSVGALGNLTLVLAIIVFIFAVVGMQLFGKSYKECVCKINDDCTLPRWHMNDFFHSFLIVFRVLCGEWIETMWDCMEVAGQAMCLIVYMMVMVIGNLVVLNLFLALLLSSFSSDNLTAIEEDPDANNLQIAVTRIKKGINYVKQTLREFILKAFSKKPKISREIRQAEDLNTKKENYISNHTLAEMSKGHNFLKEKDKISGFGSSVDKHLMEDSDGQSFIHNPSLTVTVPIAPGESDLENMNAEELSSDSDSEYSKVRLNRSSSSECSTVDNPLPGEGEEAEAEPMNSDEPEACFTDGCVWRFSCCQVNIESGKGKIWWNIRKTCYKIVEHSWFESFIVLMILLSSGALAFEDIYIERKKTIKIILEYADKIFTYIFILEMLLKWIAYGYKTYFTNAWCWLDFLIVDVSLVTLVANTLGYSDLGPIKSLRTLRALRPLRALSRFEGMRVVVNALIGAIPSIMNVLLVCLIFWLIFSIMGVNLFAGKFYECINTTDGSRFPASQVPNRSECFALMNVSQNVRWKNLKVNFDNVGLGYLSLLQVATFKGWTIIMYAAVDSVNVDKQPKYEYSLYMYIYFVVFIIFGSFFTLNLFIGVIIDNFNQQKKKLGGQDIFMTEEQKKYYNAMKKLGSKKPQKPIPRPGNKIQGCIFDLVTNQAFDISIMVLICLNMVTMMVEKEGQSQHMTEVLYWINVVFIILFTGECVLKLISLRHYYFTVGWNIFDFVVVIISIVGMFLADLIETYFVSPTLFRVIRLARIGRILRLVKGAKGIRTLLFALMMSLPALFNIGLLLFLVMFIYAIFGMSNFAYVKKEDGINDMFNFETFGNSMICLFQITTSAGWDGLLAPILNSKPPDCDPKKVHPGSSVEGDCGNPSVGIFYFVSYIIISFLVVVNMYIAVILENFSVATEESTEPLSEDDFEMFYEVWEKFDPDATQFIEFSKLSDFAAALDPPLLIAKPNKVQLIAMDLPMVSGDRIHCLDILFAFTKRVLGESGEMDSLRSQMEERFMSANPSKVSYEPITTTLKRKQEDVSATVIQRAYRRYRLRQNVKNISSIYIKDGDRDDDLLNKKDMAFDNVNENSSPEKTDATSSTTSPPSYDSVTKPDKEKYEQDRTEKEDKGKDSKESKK

[2] = target: T1, Sodium channel protein type 9 subunit alpha; experiment: Inhibition of human Nav1.7 channel expressed in HEK cells by FRET assay; assay type: cell-based, HEK293
Target sequence in this assay (Q15858 whole entry): as the sequence (Q15858 whole entry, looked up) above

Rattus norvegicus [3] = experiment: Analgesic activity in Freund's complete adjuvant-induced rat pain model assessed as reversal of mechanic allodynia at 3 mg/kg, po after 3 hrs; assay type: functional
Rattus norvegicus [4] = experiment: Analgesic activity in spinal nerve ligation-induced rat neuropathic pain model assessed as reversal of allodynia at 10 mg/kg, po after 3 hrs; assay type: functional
Rattus norvegicus [5] = experiment: Analgesic activity in Freund's complete adjuvant-induced rat pain model assessed as reversal of mechanic allodynia at 10 mg/kg, po after 3 hrs; assay type: functional
[6] = Half life in Sprague-Dawley rat; assay type: ADME, organism-based; conditions: in vivo
[7] = Bioavailability in Sprague-Dawley rat; assay type: ADME, organism-based; conditions: in vivo
Rattus norvegicus [8] = experiment: Analgesic activity in Freund's complete adjuvant-induced rat pain model assessed as reversal of mechanic allodynia at 3 mg/kg, po after 2 hrs; assay type: functional
[9] = Plasma clearance in Sprague-Dawley rat; assay type: ADME, organism-based

Structure (SMILES)	inhibition [1] [%]	IC50 [2] [nM]	further results
O=C(NCc1ccc(OC(F)(F)F)cc1)[C@@H]1CCC[C@H]1c1nc(-c2ccccc2)co1 (racemic)	19		
CS(=O)(=O)c1ccc(C2CC([C@@H]3CCC[C@H]3c3cc(-c4ccccc4)on3)=NO2)cc1 (mixture of isomers)	43		
CNC(=O)c1ccc(C2CC([C@@H]3CCC[C@H]3C(=O)NCc3ccc(OC(F)(F)F)cc3)=NO2)cc1 (mixture of isomers)	14		
O=C(O)c1ccc(C2CC([C@@H]3CCC[C@H]3C(=O)NCc3ccc(OC(F)(F)F)cc3)=NO2)cc1 (mixture of isomers)	0		
CC1(c2ccccc2)CC([C@@H]2CCC[C@H]2C(=O)Nc2ccc(OC(F)(F)F)cc2)=NO1 (mixture of isomers)	30		
CC1(c2ccccc2)CC([C@@H]2CCC[C@H]2C(=O)NCc2ccc(OC(F)(F)F)cc2)=NO1 (single isomer, unassigned; diastereomer c) [listing 1 of 2 here]	48		
CC1(c2ccccc2)CC([C@@H]2CCC[C@H]2C(=O)NCc2ccc(OC(F)(F)F)cc2)=NO1 (relative stereo) [listing 1 of 2 here]	35		
c1ccc(-c2cc([C@@H]3CCC[C@H]3C3=NOC(c4ccccc4)C3)no2)cc1 (mixture of isomers)	13		
CC(C)(C)Oc1ccc(CNC(=O)[C@@H]2CCC[C@H]2C2=NOC(C)(c3ccccc3)C2)cc1 (mixture of isomers)	26		
O=C(NCc1ccc(OC(F)(F)F)cc1)[C@@H]1CCC[C@H]1c1ncc(-c2ccccc2)o1 (racemic)	0		
CC1(c2ccccc2)CC([C@@H]2CCC[C@H]2C(=O)Nc2ccc3ncccc3c2)=NO1 (mixture of isomers)	17		
CC1(c2ccccc2)CC([C@@H]2CCC[C@H]2C(=O)NCc2ccc(-c3ccccc3S(C)(=O)=O)cc2)=NO1 (mixture of isomers)	0		
O=C(NCc1ccc(OC(F)(F)F)cc1)[C@@H]1CCC[C@H]1C1=NOC(c2ccccc2)C1 (mixture of isomers)	76	780	
CC1(c2ccccc2)CC([C@@H]2CCC[C@H]2C(=O)NCc2ccc(OC(F)(F)F)cc2)=NO1 (relative stereo) [listing 2 of 2 here]			Activity (Rattus norvegicus [3]; 3 mg/kg): 31%
COc1ccc(CNC(=O)[C@@H]2CCC[C@H]2C2=NOC(C)(c3ccccc3)C2)cc1 (relative stereo)	16		
CC1(c2ccccc2)CC([C@@H]2CCC[C@H]2C(=O)NCc2ccc(OC(F)(F)F)cc2)=NO1 (single isomer, unassigned; diastereomer b) [listing 1 of 2 here]			Activity (Rattus norvegicus [3]; 3 mg/kg): 26%
O=C(NCc1ccc(OC(F)(F)F)cc1)[C@@H]1CCC[C@H]1C1=NCC(c2ccccc2)O1 (mixture of isomers)	71	620	
O=C(NCc1ccc(OC(F)(F)F)cc1)[C@@H]1CCC[C@H]1C1=NOC(c2ccccn2)C1 (mixture of isomers)	0		
CC1(c2ccccc2)CC([C@@H]2CCC[C@H]2C(=O)NCc2ccc(OC(F)(F)F)cc2)=NO1 (single isomer, unassigned; diastereomer a) [listing 1 of 2 here]		960	Activity (Rattus norvegicus [4]): 21%; Activity (Rattus norvegicus [3]; 3 mg/kg): 53%
O=C(NCc1ccc(OC(F)(F)F)cc1)[C@@H]1CCC[C@H]1C1=NOC(c2ccc(OC(F)(F)F)cc2)C1 (mixture of isomers)	93	500	
O=C(NCc1ccc(OC(F)(F)F)cc1)[C@@H]1CCC[C@H]1c1cc(-c2ccccc2)on1 (racemic)	38		
NC(=O)c1ccc(C2CC([C@@H]3CCC[C@H]3C(=O)NCc3ccc(OC(F)(F)F)cc3)=NO2)cc1 (mixture of isomers)	0		

Structure (SMILES)	inhibition [1] [%]	IC50 [2] [nM]	further results
Clc1cc(Cl)cc(C2CC([C@@H]3CCC[C@H]3c3cc(-c4ccccc4)on3)=NO2)c1 (mixture of isomers)	35		
CC1(c2ccccc2)CC([C@@H]2CCC[C@H]2C(=O)NCc2ccccc2)=NO1 (mixture of isomers)	19		
CC(C)Oc1ccc(CNC(=O)[C@@H]2CCC[C@H]2C2=NOC(C)(c3ccccc3)C2)cc1 (mixture of isomers)		1500	
CS(=O)(=O)c1ccc(C2CC([C@@H]3CCC[C@H]3C(=O)NCc3ccc(OC(F)(F)F)cc3)=NO2)cc1 (mixture of isomers)	26		
CC1(c2ccccc2)CC([C@@H]2CCC[C@H]2C(=O)NCc2ccc(C(F)(F)F)cc2)=NO1 (mixture of isomers)		2500	
FC(F)(F)Oc1ccc(C2CC([C@@H]3CCC[C@H]3c3cc(-c4ccccc4)on3)=NO2)cc1 (mixture of isomers)	18		
O=C(NCc1ccc(OC(F)(F)F)cc1)[C@@H]1CCC[C@H]1C1=NC(c2ccc(Cl)cc2)CO1 (mixture of isomers)	56	970	
CN(Cc1ccc(-c2ccccc2S(C)(=O)=O)cc1)C(=O)[C@@H]1CCC[C@H]1C1=NOC(C)(c2ccccc2)C1 (mixture of isomers)	0		
COC(=O)c1ccc(C2CC([C@@H]3CCC[C@H]3C(=O)NCc3ccc(OC(F)(F)F)cc3)=NO2)cc1 (mixture of isomers)	87	340	
O=C(NCc1ccc(OC(F)(F)F)cc1)[C@@H]1CCC[C@H]1c1cc(-c2ccc(Cl)cc2)on1 (racemic)	33		
O=C(NCc1ccc(OC(F)(F)F)cc1)[C@@H]1CCC[C@H]1C1=NOC(c2cccc(Cl)c2)C1 (mixture of isomers)	90	480	
CC1(c2ccccc2)CC([C@@H]2CCC[C@H]2C(=O)NCc2ccc(OC(F)(F)F)cc2)=NO1 (single isomer, unassigned; diastereomer c) [listing 2 of 2 here]		1200	Activity (Rattus norvegicus [3]; 3 mg/kg): 20%
O=C(NCc1ccc(OC(F)(F)F)cc1)[C@@H]1CCC[C@H]1C1=NOC(CO)(c2ccccc2)C1 (mixture of isomers)	23		
CN(Cc1ccc(-c2ccccc2S(N)(=O)=O)cc1)C(=O)[C@@H]1CCC[C@H]1C(=O)NCc1ccc(OC(F)(F)F)cc1 (relative stereo)		830	Activity (Rattus norvegicus [4]): 35%; Activity (Rattus norvegicus [5]): 54%; Activity (Rattus norvegicus [3]): 31%
CC1(c2ccccc2)CC([C@@H]2CCC[C@H]2C(=O)NCc2ccc(OC(F)(F)F)cc2)=NO1 (single isomer, unassigned; diastereomer a) [listing 2 of 2 here]	64		
CC1(c2ccccc2)CC([C@@H]2CCC[C@H]2C(=O)NCc2ccc(OC(F)(F)F)cc2)=NO1 (single isomer, unassigned; diastereomer b) [listing 2 of 2 here]	37		
O=C(NCc1ccc(OC(F)(F)F)cc1)[C@@H]1CCC[C@H]1C1=NOC(c2ccc(Cl)cc2)C1 (mixture of isomers)	92	430	
CC1(c2ccccc2)CC([C@@H]2CCC[C@H]2C(=O)NCc2ccc(OC(F)(F)F)cc2)=NO1 (mixture of isomers) [listing 1 of 2 here]		620	half-life [6]: 2.9 h; bioavailability [7]: 16%; Activity (Rattus norvegicus [3]; 3 mg/kg): 48%; Activity (Rattus norvegicus [8]): 20%; clearance [9]: 17.8 mL/min/kg
CC1(c2ccccc2)CC([C@@H]2CCC[C@H]2C(=O)NCc2ccc(OC(F)(F)F)cc2S(C)(=O)=O)=NO1 (mixture of isomers)	13		
COC(=O)c1cccc(C2CC([C@@H]3CCC[C@H]3C(=O)NCc3ccc(OC(F)(F)F)cc3)=NO2)c1 (mixture of isomers)	75	710	
CC1(c2ccccc2)CC([C@@H]2CCC[C@H]2C(=O)NCc2ccc(Cl)cc2)=NO1 (mixture of isomers)	15		
CC1(c2ccccc2)CC([C@@H]2CCC[C@H]2C(=O)NCc2ccc(OC(F)(F)F)cc2)=NO1 (mixture of isomers) [listing 2 of 2 here]	63		
